Literature values in patent publication US20050143343A1, “Nutritional supplement for enhancing the production and effect of natural human growth hormone” (priority 2003, published 2005).

Test system: human growth hormone secretion
Settings: oral administration, 15 male volunteers; 1200 mg of each constituent, in combination or alone at the same doses

Row | Molecule | secretion (release) of human growth hormone
1 | Cl.NCCCC[C@H](N)C(=O)O [L-lysine hydrochloride] | Neither of the two constituents resulted a significant release of human growth hormone
2 | L-arginine-2-pyrrolidone-5-carboxylate | Neither of the two constituents resulted a significant release of human growth hormone
